Calls of active or inactive are those of the source. The rule behind the calls is not given here.
Assays:
[1] = test system: RAW264.7; assay: Cytotoxicity against mouse RAW264.7 cells assessed as inhibition of cell growth at 2 uM incubated for 24 hrs by MTT assay; assay type: toxicity, cell-based; settings: raw264.7, 24 h
[2] = test system: RAW264.7; assay: Anti-inflammatory activity in LPS-induced mouse RAW264.7 cells assessed as inhibition of NO levels incubated for 24 hrs; assay type: functional, cell-based; settings: RAW264.7, 24 h
[3] = test system: RAW264.7; assay: Anti-inflammatory activity in LPS-induced mouse RAW264.7 cells assessed as inhibition of TNF-alpha level at 2 uM incubated for 24 hrs by ELISA relative to control; assay type: functional
[4] = test system: RAW264.7; assay: Anti-inflammatory activity in LPS-induced mouse RAW264.7 cells assessed as inhibition of IL-6 level at 2 uM incubated for 24 hrs by ELISA relative to control; assay type: functional
[5] = test system: RAW264.7; assay: Anti-inflammatory activity in LPS-induced mouse RAW264.7 cells assessed as inhibition of IL-1beta level at 2 uM incubated for 24 hrs by ELISA relative to control; assay type: functional
[6] = test system: RAW264.7; assay: Inhibition of MAPK signaling pathway in LPS-induced mouse RAW264.7 cells assessed as reduction in p38 phosphorylation at 0.2 uM incubated for 24 hrs by Western blot analysis; assay type: cell-based
[7] = test system: RAW264.7; assay: Inhibition of MAPK signaling pathway in LPS-induced mouse RAW264.7 cells assessed as reduction in ERK phosphorylation at 0.2 uM incubated for 24 hrs by Western blot analysis; assay type: cell-based
[8] = test system: RAW264.7; assay: Inhibition of MAPK signaling pathway in LPS-induced mouse RAW264.7 cells assessed as reduction in SAPK/JNK phosphorylation at 0.2 uM incubated for 24 hrs by Western blot analysis; assay type: cell-based
[9] = Downregulation of MAPK protein expression in LPS-induced mouse RAW264.7 cells at 0.2 uM incubated for 24 hrs by Western blot analysis relative to control; assay type: functional
[10] = test system: RAW264.7; assay: Inhibition of MAPK signaling pathway in LPS-induced mouse RAW264.7 cells assessed as reduction in phosphorylated p38 level at 10 uM incubated for 24 hrs by Western blot analysis; assay type: cell-based
[11] = test system: RAW264.7; assay: Inhibition of MAPK signaling pathway in LPS-induced mouse RAW264.7 cells assessed as reduction in phosphorylated SAPK/JNK level at 10 uM incubated for 24 hrs by Western blot analysis; assay type: cell-based
[12] = test system: RAW264.7; assay: Inhibition of NFkappaB pathway activation in LPS-induced mouse RAW264.7 cells assessed as inhibition of p65 phosphorylation at 0.2 uM incubated for 24 hrs by Western blot analysis; assay type: cell-based
[13] = test system: RAW264.7; assay: Inhibition of NFkappaB pathway activation in LPS-induced mouse RAW264.7 cells assessed as inhibition of IKBalpha phosphorylation at 10 uM incubated for 24 hrs by Western blot analysis; assay type: cell-based
[14] = test system: RAW264.7; assay: Inhibition of NFkappaB pathway activation in LPS-induced mouse RAW264.7 cells assessed as reduction in phosphorylated p65 level at 0.2 to 10 uM incubated for 24 hrs by Western blot analysis relative to control; assay type: cell-based; settings: dose 0.2-10 µM
[15] = test system: RAW264.7; assay: Inhibition of NFkappaB pathway activation in LPS-induced mouse RAW264.7 cells assessed as reduction in phosphorylated IKBalpha level at 10 uM incubated for 24 hrs by Western blot analysis relative to control; assay type: cell-based

IC50 [2]: 500 nM
SMILES: C=CCOc1ccccc1C[C@H]1C(=O)N(C)C(=O)c2nc3ccccc3c(=O)n21
Activity [1]: Non-toxic
inhibition at 2 µM [3]: 25.6%
inhibition at 2 µM [4]: 54.5%
inhibition at 2 µM [5]: 92.9%
inhibition [6]: Active
inhibition [7]: Active
inhibition [8]: Active
Activity [9]: >30%
inhibition [10]: Active; Reduction In Cellular P-P38 Level Was Almost Close To Untreated Control
inhibition [11]: Active; Reduction In Cellular P-Sapk/Jnk Level Was Almost Close To Untreated Control
inhibition [12]: Active
inhibition [13]: Active
inhibition [14]: 50%
inhibition [15]: 59%

Reference: ChEMBL document CHEMBL6177967, “Semisynthesis and biological evaluation of 17-hydroxybrevianamide N derivatives as anti-inflammatory agents by mediating NF-κB and MAPK signaling pathways” (Eur J Med Chem, 2025)
